Source: patent publication US10023592B2, “Bromodomain inhibitors” (Celgene Quanticel Research, Inc., priority 2013, dated 2018)
pIC50: −log10 of the molar value.

Legend:
[1] = tested on: Raji, human Burkitts lymphoma cells; assay: Cell-MTS proliferation assay, Raji; type: cell-based; details: 168 hr
Protocol: (§1) The Cell-MTS assay is a 7-day plate-based colorimetric assay which quantifies the amount of newly generated NADH in the presence or absence of test compound. The NADH level is used for the quantification of cancer cell proliferation.
(§2) Established cancer cell lines with a variety of driving mutations were obtained from American Type Culture Collection (ATCC) and routinely passaged according to ATCC protocols. For routine assay, these cells were seeded at densities which enabled ˜90% confluence after 7 days of culture. Raji, human Burkitts lymphoma cells, (cMYC) were seeded at 15,000 cells per 96-well. HL-60, human proleukemia cells, (NRAS, p16, p53, c-Myc amplified) were seeded at 5,000 cells per 96-well. NCI-H460, human non-small cell lung cancer cells, (KRAS, PIK3CA, STLK11, p16) were seeded at 3,000 cells per 96-well. 24 hr after plating, cells received an 11-point dilution of test compound with final concentration ranges from 100 μM to 2.0 nM. […] At the end of this incubation period, 80 μL of media is removed and 20 μL of CellTiter 96® AQueous Non-Radioactive Cell Proliferation Assay soln (Promega) was added. The cells were incubated until the OD490 was >0.6. IC50 values were calculated using the IDBS XLfit software package and include background subtracted OD490 values and normalization to DMSO controls. Cellular proliferation IC50 values were uploaded and archived using the Chem Biography Platform.

[2] = biological target: BRD4(BD1) (Homo sapiens (Human), UniProt O60885); assay: In vitro enzyme inhibition assay (BRD4 AlphaScreen); type: binding
Method in brief: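 His-tagged BRD4 tested by AlphaScreen for binding of biotinylated H4K5/8/12/16-tetraacetyl peptide. After 20 min at room temperature, streptavidin donor and nickel chelate acceptor beads added (5 μg/mL final each). IC50 determined.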

[3] = tested on: HL-60, human proleukemia cells; assay: Cell-MTS proliferation assay, HL-60; type: cell-based; details: Cell-MTS, 168 hr, class symbols A/B/C
Protocol: as §1, §2

[4] = tested on: NCI-H460, human non-small cell lung cancer cells; assay: Cell-MTS proliferation assay, NCI-H460; type: cell-based; details: Homo sapiens, NCI-H460; Cell-MTS proliferation, 168 hr
Protocol: as §1, §2

[5] = Homo sapiens, Raji, Cell-MTS, class symbols A/B/C
[6] = Homo sapiens, Raji, Cell-MTS proliferation
[7] = in vitro enzyme inhibition assay

SMILES | pIC50 [1, 5] | pIC50 ([2]; class symbols A/B/C) | pIC50 ([3]; Homo sapiens, HL-60) | pIC50 [1, 6] | pIC50 [2, 7] | pIC50 [4] | pIC50 ([1]; Cell-MTS, class symbols A/B/C) | pIC50 [3]
CN(C(=O)OC(C)(C)C)c1cccc(-c2cn(C)c(=O)c3ccccc23)c1 [Example 31, tert-butyl N-methyl-N-[3-(2-methyl-1-oxoisoquinolin-4-yl)phenyl]carbamate] | 5.30 to 6.30 | 5.30 to 6.30 | 5.30 to 6.30 | – | – | – | – | –
Cn1cc(-c2ccc3c(=O)n(C)cc(-c4cc(NS(C)(=O)=O)ccc4F)c3c2)cn1 [Example 41, N-[4-fluoro-3-[2-methyl-6-(1-methylpyrazol-4-yl)-1-oxoisoquinolin-4-yl]phenyl]methanesulfonamide] | > 6.30 | > 6.30 | > 6.30 | – | – | – | – | –
Cn1cc(-c2ccc3c(=O)n(C)cc(-c4cc(NS(C)(=O)=O)c(F)cc4F)c3c2)cn1 [Example 43, N-[2,4-difluoro-5-[2-methyl-6-(1-methylpyrazol-4-yl)-1-oxoisoquinolin-4-yl]phenyl]methane-sulfonamide] | > 6.30 | > 6.30 | > 6.30 | – | – | – | – | –
Cn1cc(-c2cccc(S(N)(=O)=O)c2)c2cc(F)ccc2c1=O [Example 48, 3-(6-fluoro-2-methyl-1-oxoisoquinolin-4-yl) benzenesulfonamide] | – | 5.30 to 6.30 | – | – | – | – | 5.30 to 6.30 | 5.30 to 6.30
CCS(=O)(=O)Nc1cccc(-c2cn(C)c(=O)c3cnccc23)c1 [Example 52, N-[3-(2-methyl-1-oxo-2,7-naphthyridin-4-yl)phenyl] ethanesulfonamide] | 5.30 to 6.30 | 5.30 to 6.30 | 5.30 to 6.30 | – | – | – | – | –
CCNS(=O)(=O)c1cccc(-c2cn(C)c(=O)c3cnccc23)c1 [Example 53, N-ethyl-3-(2-methyl-1-oxo-2,7-naphthyridin-4-yl) benzenesulfonamide] | – | 5.30 to 6.30 | – | – | – | – | < 5.30 | < 5.30
CCNS(=O)(=O)c1cccc(-c2cn(C)c(=O)c3cc(F)ccc23)c1 [Example 59, N-ethyl-3-(7-fluoro-2-methyl-1-oxoisoquinolin-4-yl) benzenesulfonamide] | – | 5.30 to 6.30 | – | – | – | – | 5.30 to 6.30 | 5.30 to 6.30
CCS(=O)(=O)Nc1cccc(-c2cn(C)c(=O)c3cc(F)ccc23)c1 [Example 62, N-[3-(7-fluoro-2-methyl-1-oxoisoquinolin-4-yl)phenyl]ethanesulfonamide] | 5.30 to 6.30 | > 6.30 | > 6.30 | – | – | – | – | –
Cn1cc(-c2cc(S(C)(=O)=O)ccc2OCC2CC2)c2cc(F)ccc2c1=O [Example 90, 4-[2-(cyclopropylmethoxy)-5-methylsulfonylphenyl]-6-fluoro-2-methylisoquinolin-1-one] | > 6.30 | > 6.30 | > 6.30 | – | – | – | – | –
Cn1cc(-c2cccc(NS(C)(=O)=O)c2)ccc1=O [Example 94, N-[3-(1-methyl-6-oxopyridin-3-yl)phenyl]methanesulfonamide] | > 6.30 | 5.30 to 6.30 | < 5.30 | – | – | – | – | –
COc1cc(-c2nc(CS(C)(=O)=O)ncc2Oc2ccc(F)cc2F)cn(C)c1=O [Example 146, 5-[5-(2,4-difluorophenoxy)-2-(methylsulfonylmethyl)pyrimidin-4-yl]-3-methoxy-1-methylpyridin-2-one] | – | – | – | 5.30 to 6.30 | > 6.30 | < 5.30 | – | –
Cc1cc(-c2nc(CS(C)(=O)=O)ncc2Oc2ccc(F)cc2F)cn(C)c1=O [Example 147, 5-[5-(2,4-difluorophenoxy)-2-(methylsulfonylmethyl)pyrimidin-4-yl]-1,3-dimethylpyridin-2-one] | – | – | – | 5.30 to 6.30 | > 6.30 | < 5.30 | – | –
Cn1cc(-c2cc(S(C)(=O)=O)ccc2OCC2CC2)c2cc(C(F)(F)F)ccc2c1=O [Example 197] | – | – | – | 5.30 to 6.30 | – | < 5.30 | – | –

More lines, main results first:

pIC50 [1, 5] | pIC50 ([2]; class symbols A/B/C) | pIC50 ([3]; Homo sapiens, HL-60) | pIC50 [1, 6] | pIC50 [2, 7] | pIC50 [4] | SMILES | pIC50 ([1]; Cell-MTS, class symbols A/B/C) | pIC50 [3]
> 6.30 | 5.30 to 6.30 | 5.30 to 6.30 | – | – | – | Cn1cc(-c2cccc(S(=O)(=O)N3CCCC3)c2)c2ccccc2c1=O [Example 7, 2-methyl-4-(3-pyrrolidin-1-yl-sulfonylphenyl)isoquinolin-1-one] | – | –
> 6.30 | 5.30 to 6.30 | 5.30 to 6.30 | – | – | – | COc1ccc(-c2cn(C)c(=O)c3ccccc23)cc1S(=O)(=O)NCc1ccccc1 [Example 15, N-benzyl-2-methoxy-5-(2-methyl-1-oxoisoquinolin-4-yl)benzenesulfonamide] | – | –
5.30 to 6.30 | > 6.30 | > 6.30 | – | – | – | Cc1ccc(-c2cn(C)c(=O)c3ccccc23)cc1NS(C)(=O)=O [Example 17, N-[2-methyl-5-(2-methyl-1-oxoisoquinolin-4-yl)phenyl] methanesulfonamide] | – | –
5.30 to 6.30 | 5.30 to 6.30 | 5.30 to 6.30 | – | – | – | COc1ccc(-c2cn(C)c(=O)c3ccccc23)cc1C(=O)NCc1ccccc1 [Example 18, N-benzyl-2-methoxy-5-(2-methyl-1-oxoisoquinolin-4-yl)benzamide] | – | –
> 6.30 | < 5.30 | > 6.30 | – | – | – | Cn1cc(-c2ccc3c(c2)NC(=O)C3)c2ccccc2c1=O [Example 20, 2-methyl-4-(2-oxo-1,3-dihydroindol-6-yl) isoquinolin-1-one] | – | –
5.30 to 6.30 | 5.30 to 6.30 | 5.30 to 6.30 | – | – | – | Cn1cc(-c2cccc(S(=O)(=O)NCCO)c2)c2ccccc2c1=O [Example 22, N-(2-hydroxyethyl)-3-(2-methyl-1-oxoisoquinolin-4-yl)benzenesulfonamide] | – | –
5.30 to 6.30 | > 6.30 | > 6.30 | – | – | – | COc1ccc(-c2cn(C)c(=O)c3ccccc23)cc1NS(C)(=O)=O [Example 30, N-[2-methoxy-5-(2-methyl-1-oxoisoquinolin-4-yl)phenyl]methanesulfonamide] | – | –
> 6.30 | > 6.30 | > 6.30 | – | – | – | Cn1cc(-c2cc(NS(C)(=O)=O)ccc2F)c2ccccc2c1=O [Example 34, N-[4-fluoro-3-(2-methyl-1-oxoisoquinolin-4-yl)phenyl] methanesulfonamide] | – | –
5.30 to 6.30 | 5.30 to 6.30 | 5.30 to 6.30 | – | – | – | Cn1cc(-c2cc(NS(C)(=O)=O)c(F)cc2F)c2ccccc2c1=O [Example 35, N-[2,4-difluoro-5-(2-methyl-1-oxoisoquinolin-4-yl)phenyl]methanesulfonamide] | – | –
5.30 to 6.30 | 5.30 to 6.30 | 5.30 to 6.30 | – | – | – | Cn1cc(-c2cc(F)cc(NS(C)(=O)=O)c2)c2ccccc2c1=O [Example 36, N-[3-fluoro-5-(2-methyl-1-oxoisoquinolin-4-yl)phenyl] methanesulfonamide] | – | –
5.30 to 6.30 | > 6.30 | 5.30 to 6.30 | – | – | – | Cn1cc(-c2ccc(F)c(NS(C)(=O)=O)c2)c2ccccc2c1=O [Example 37, N-[2-fluoro-5-(2-methyl-1-oxoisoquinolin-4-yl)phenyl] methanesulfonamide] | – | –
5.30 to 6.30 | > 6.30 | > 6.30 | – | – | – | Cn1cc(-c2cc(NS(C)(=O)=O)ccc2Cl)c2ccccc2c1=O [Example 38, N-[4-chloro-3-(2-methyl-1-oxoisoquinolin-4-yl)phenyl] methanesulfonamide] | – | –
5.30 to 6.30 | > 6.30 | > 6.30 | – | – | – | Cc1ccc(NS(C)(=O)=O)cc1-c1cn(C)c(=O)c2ccccc12 [Example 39, N-[4-methyl-3-(2-methyl-1-oxoisoquinolin-4-yl)phenyl]methanesulfonamide] | – | –
5.30 to 6.30 | 5.30 to 6.30 | 5.30 to 6.30 | – | – | – | Cn1cc(-c2cc(NS(C)(=O)=O)cc(C(F)(F)F)c2)c2ccccc2c1=O [Example 40, N-[3-(2-methyl-1-oxoisoquinolin-4-yl)-5-(trifluoromethyl)phenyl] methanesulfonamide] | – | –
> 6.30 | > 6.30 | > 6.30 | – | – | – | Cn1cc(-c2cccc(NS(C)(=O)=O)c2)c2cc(F)ccc2c1=O [Example 47, N-[3-(6-fluoro-2-methyl-1-oxoisoquinolin-4-yl)phenyl]methanesulfonamide] | – | –
< 5.30 | 5.30 to 6.30 | 5.30 to 6.30 | – | – | – | Cn1cc(-c2cccc(NS(C)(=O)=O)c2)c2ccncc2c1=O [Example 51, N-[3-(2-methyl-1-oxo-2,7-naphthyridin-4-yl)phenyl]methanesulfonamide] | – | –
5.30 to 6.30 | > 6.30 | > 6.30 | – | – | – | Cn1cc(-c2cccc(NS(C)(=O)=O)c2)c2ccc(F)cc2c1=O [Example 58, N-[3-(7-fluoro-2-methyl-1-oxoisoquinolin-4-yl)phenyl]methanesulfonamide] | – | –
5.30 to 6.30 | – | 5.30 to 6.30 | – | – | – | Cn1cc(-c2cccc(S(N)(=O)=O)c2)c2ccc(F)cc2c1=O [Example 61, 3-(7-fluoro-2-methhyl-1-oxoisoquinolin-4-yl) benzenesulfonamide] | – | –
